ChEMBL document CHEMBL4316583, “In Vitro and in Vivo Antitumor Effects of Plant-Derived Miliusanes and Their Induction of Cellular Senescence” (J Med Chem, 2019)
pIC50: −log10 of the molar value. Activity calls are given as the source filed them. The calls are words filed in the database; no cut-off is given here.

Assays:
HeLa [1] = test: Antitumor activity against human HeLa cells xenografted in nude BALB/c mouse assessed as suppression of excised tumor size at 10 mg/kg, ip administered every other day for 21 days and observed for 6 days before sacrifice relative to control; type: functional
HCT-116 [2] = test: Antitumor activity against human HCT116 cells xenografted in nude BALB/c mouse assessed as reduction in volume of growing subcutaneous tumor at 10 mg/kg, ip administered twice a week for 3 weeks; type: functional, organism-based
[3] = Toxicity in BALB/c mouse assessed as mortality at 5 mg/kg, ip dosed daily and measured on day 25; type: organism-based; conditions: in vivo
HCT-116 [4] = test: Induction of apoptosis in human HCT116 cells assessed as late apoptotic cells at 5.86 nM after 48 hrs by annexin V/propidium iodide-double staining based flow cytometry (reference value: 4.6%); type: functional
HCT-116 [5] = test: Antitumor activity against human HCT116 cells xenografted in nude BALB/c mouse assessed as tumor growth inhibition at 10 mg/kg, ip administered twice a week for 3 weeks relative to control; type: functional; conditions: HCT-116, ip, 504 h, read-out: TGI
HeLa [6] = test: Antitumor activity against human HeLa cells xenografted in nude BALB/c mouse assessed as tumor growth inhibition at 10 mg/kg, ip administered every other day for 21 days and observed for 6 days before sacrifice relative to control; type: functional; conditions: read-out: TGI
[7] = Toxicity in BALB/c mouse assessed as mortality at 2.5 mg/kg, ip administered daily for 28 days; type: organism-based; conditions: in vivo, read-out: Activity
HCT-116 [8] = test: Induction of apoptosis in human HCT116 cells assessed as viable cells at 5.86 nM after 48 hrs by annexin V/propidium iodide-double staining based flow cytometry (reference value: 88.3%); type: functional; conditions: HCT-116, 48 h, read-out: Activity
[9] = Toxicity in nude BALB/c mouse xenografted with human A375 cells assessed as body weight loss at 10 mg/kg, ip measured on day 17 and 21; type: organism-based; conditions: in vivo
A2780 = test: Growth inhibition human A2780 cells after 72 hrs by MTS assay; type: functional, cell-based; conditions: A2780, 72 h
HCT-116 [10] = test: Induction of apoptosis in human HCT116 cells assessed as necrotic cells at 5.86 nM after 48 hrs by annexin V/propidium iodide-double staining based flow cytometry (reference value: […]); type: functional
HCT-116 [11] = test: Induction of apoptosis in human HCT116 cells assessed as early apoptotic cells at 5.86 nM after 48 hrs by annexin V/propidium iodide-double staining based flow cytometry (reference value: 4.8%); type: functional
A-375 [12] = test: Cytotoxicity against human A375 cells assessed as cell growth inhibition after 48 hrs by sulforhodamine B assay; type: functional, cell-based; conditions: A-375, 48 h
[13] = Toxicity in human HCT116 cells xenografted nude BALB/c mouse assessed as tumor growth inhibition at 7.5 mg/kg, ip administered daily for 11 days; type: organism-based; conditions: in vivo, 264 h
HCT-116 [14] = test: Induction of cellular senescence in human HCT116 cells assessed as up-regulation of TP53 gene at 0.22 uM after 48 hrs by qPCR assay; type: functional, cell-based
[15] = Toxicity in nude BALB/c mouse xenografted with human A375 cells assessed as body weight loss at 15 mg/kg, ip administered every other day for 23 days; type: organism-based; conditions: in vivo, 552 h
Mus musculus [16] = test: Induction of cellular senescence in BALB/c mouse xenografted with human HCT116 cells assessed as up-regulation of p21 protein expression at 20 mg/kg, administered every other day for 3 weeks by immunohistochemical analysis; type: functional, organism-based
[17] = Toxicity in nude BALB/c mouse xenografted with human HeLa cells assessed as body weight loss at 30 mg/kg, administered every other day for 21 days; type: organism-based; conditions: in vivo, 504 h
HCT-116 [18] = test: Cytotoxicity against human HCT116 cells assessed as cell growth inhibition after 24 hrs by sulforhodamine B assay; type: functional, cell-based; conditions: HCT-116, 24 h
[19] = Toxicity in nude BALB/c mouse xenografted with human HCT116 cells assessed as body weight loss at 10 mg/kg, ip administered daily for 3 weeks; type: organism-based; conditions: in vivo, 504 h
[20] = Toxicity in nude BALB/c mouse xenografted with human HCT116 cells assessed as body weight loss at 40 mg/kg, administered every other day for 21 days; type: organism-based; conditions: in vivo, 504 h
HCT-116 [21] = test: Induction of cellular senescence in human HCT116 cells assessed as up-regulation of p21 protein expression at 0.22 uM after 48 hrs in presence of p21 siRNA by SA-beta-gal-staining based Western blot analysis; type: functional, cell-based
[22] = Toxicity in nude BALB/c mouse xenografted with human HCT116 cells assessed as body weight loss at 30 mg/kg, ip administered daily for 3 weeks; type: organism-based; conditions: in vivo, 504 h
HCT-116 [23] = test: Induction of cellular senescence in human HCT116 cells assessed as up-regulation of p21 protein expression at 0.05 to 0.2 ug/ml after 48 hrs by Western blot analysis; type: functional, cell-based
HeLa [24] = test: Antitumor activity against human HeLa cells xenografted in nude BALB/c mouse assessed as suppression of excised tumor size at 30 mg/kg, ip administered every other day for 21 days and observed for 6 days before sacrifice relative to control; type: functional
HCT-116 [25] = test: Induction of cellular senescence in human HCT116 cells assessed as up-regulation of p16 protein expression at 0.05 to 0.2 ug/ml after 48 hrs by Western blot analysis; type: functional, cell-based
A-375 [26] = test: Antitumor activity against human A375 cells xenografted in nude BALB/c mouse assessed as tumor growth inhibition at 15 mg/kg, ip administered every other day for 23 days relative to control; type: functional; conditions: A-375, ip, 552 h, read-out: TGI
HeLa [27] = test: Antitumor activity against human HeLa cells xenografted in nude BALB/c mouse assessed as tumor growth inhibition at 30 mg/kg, ip administered every other day for 21 days and observed for 6 days before sacrifice relative to control; type: functional; conditions: read-out: TGI
HeLa [28] = test: Antitumor activity against human HeLa cells xenografted in nude BALB/c mouse assessed as suppression of excised tumor size at 20 mg/kg, ip administered every other day for 21 days and observed for 6 days before sacrifice relative to control; type: functional
HCT-116 [29] = test: Antiproliferative activity against human HCT116 cells xenografted in BALB/c mouse at 20 mg/kg, administered every other day for 3 weeks by Ki67-staining based assay; type: functional, organism-based
A-375 [30] = test: Antitumor activity against human A375 cells xenografted in nude BALB/c mouse assessed as suppression of tumor volume at 7.5 mg/kg, ip administered every other day for 23 days relative to control; type: functional; conditions: A-375, ip, 552 h, read-out: TGI
A-375 [31] = test: Antitumor activity against human A375 cells xenografted in nude BALB/c mouse assessed as suppression of tumor volume at 15 mg/kg, ip administered every other day for 23 days relative to control; type: functional; conditions: A-375, ip, 552 h, read-out: TGI
HCT-116 [32] = test: Induction of cellular senescence in human HCT116 cells at 0.22 uM after 48 hrs by SA-beta-gal-staining based assay; type: functional, cell-based
HT-29 = test: Growth inhibition human HT-29 cells after 72 hrs by MTS assay; type: functional, cell-based
HCT-116 [33] = test: Antitumor activity against human HCT116 cells xenografted in nude BALB/c mouse assessed as tumor growth inhibition at 10 mg/kg, ip administered daily for 21 days relative to control; type: functional; conditions: HCT-116, ip, 504 h, read-out: TGI
HCT-116 [34] = test: Cytotoxicity against human HCT116 cells assessed as cell growth inhibition after 48 hrs by sulforhodamine B assay; type: functional, cell-based; conditions: HCT-116, 48 h
A-375 [35] = test: Antitumor activity against human A375 cells xenografted in nude BALB/c mouse assessed as tumor growth inhibition at 7.5 mg/kg, ip administered every other day for 23 days relative to control; type: functional; conditions: A-375, ip, 552 h, read-out: TGI
HCT-116 [36] = test: Antitumor activity against human HCT116 cells xenografted in nude BALB/c mouse assessed as tumor growth inhibition at 20 mg/kg, ip administered every other day for 21 days relative to control; type: functional; conditions: HCT-116, ip, 504 h, read-out: TGI
[37] = Toxicity in nude BALB/c mouse xenografted with human HeLa cells assessed as body weight loss at 20 mg/kg, administered every other day for 21 days; type: organism-based; conditions: in vivo, 504 h
Mus musculus [38] = test: Induction of cellular senescence in BALB/c mouse xenografted with human HCT116 cells assessed as up-regulation of p16 protein expression at 20 mg/kg, administered every other day for 3 weeks by immunohistochemical analysis; type: functional, organism-based
[39] = Toxicity in nude BALB/c mouse xenografted with human HCT116 cells assessed as body weight loss at 10 to 20 mg/kg, ip measured on day 10 and 11; type: organism-based; conditions: in vivo
HCT-116 [40] = test: Induction of cellular senescence in human HCT116 cells assessed as up-regulation of CDKN1A gene at 0.22 uM after 48 hrs by qPCR assay; type: functional, cell-based
Mus musculus [41] = test: Effect on p27 protein expression in BALB/c mouse xenografted with human HCT116 cells at 20 mg/kg, administered every other day for 3 weeks by immunohistochemical analysis; type: functional, organism-based
HeLa [42] = test: Antitumor activity against human HeLa cells xenografted in nude BALB/c mouse assessed as tumor growth inhibition at 20 mg/kg, ip administered every other day for 21 days and observed for 6 days before sacrifice relative to control; type: functional; conditions: read-out: TGI
HCT-116 [43] = test: Antitumor activity against human HCT116 cells xenografted in nude BALB/c mouse assessed as tumor growth inhibition at 20 mg/kg, ip administered daily for 21 days relative to control; type: functional; conditions: HCT-116, ip, 504 h, read-out: TGI
HCT-116 [44] = test: Antiproliferative activity against human HCT116 cells assessed as inhibition of colony formation at 1.77 uM after 14 days by crystal violet-staining based assay; type: functional, cell-based

CC(=O)O[C@H]1C(=O)[C@@]2(C)[C@H]([C@H](OC(=O)c3ccccc3)[C@]3(O)C[C@H](OC(=O)[C@H](O)[C@@H](NC(=O)c4ccccc4)c4ccccc4)C(C)=C1C3(C)C)[C@]1(OC(C)=O)CO[C@@H]1C[C@@H]2O [PACLITAXEL]
Activity (HeLa [1]): 48.9% | Activity (HCT-116 [2]): Active | Activity [3]: Toxic | Activity (HCT-116 [4]): 9.4% | inhibition in vivo at 10 mg/kg (HCT-116 [5]): 52.6% | inhibition in vivo at 10 mg/kg (HeLa [6]): 46.5% | mortality at 672 h [7]: 30% | viability at 0.00586 µM (HCT-116 [8]): 67.3% | Activity [9]: Toxic | pIC50 (A2780): 8.82 | Activity (HCT-116 [10]): 9.2% | Activity (HCT-116 [11]): 14.1% | pIC50 (A-375 [12]): 8.70 | Activity [13]: Toxic

CC(C)=CCC/C(C)=C/[C@H]1OC(=O)C[C@]12C[C@H](OC(=O)c1ccc(N(C)C)cc1)C=CC2=O
Activity (HeLa [1]): 29.6% | Activity (HCT-116 [14]): Active | Activity [15]: 1.5 g | Activity (Mus musculus [16]): Active | Activity [17]: 2.2 g | pIC50 (HCT-116 [18]): 5.59 | inhibition in vivo at 10 mg/kg (HeLa [6]): 17.2% | Activity [19]: Non-Toxic | Activity [20]: Non-Toxic | Activity (HCT-116 [21]): inactive | Activity [22]: 2 g | Activity (HCT-116 [23]): Active | Activity (HeLa [24]): 76.9% | Activity (HCT-116 [25]): Active | inhibition in vivo at 15 mg/kg (A-375 [26]): 19.4% | inhibition in vivo at 30 mg/kg (HeLa [27]): 75.9% | Activity (HeLa [28]): 55.4% | Activity (HCT-116 [29]): Active | inhibition in vivo at 7.5 mg/kg (A-375 [30]): 39.6% | inhibition in vivo at 15 mg/kg (A-375 [31]): 39.4% | Activity (HCT-116 [32]): Active | growth inhibition (GI) (HT-29): Active | inhibition in vivo at 10 mg/kg (HCT-116 [33]): 51% | pIC50 (HCT-116 [34]): 5.77 | inhibition in vivo at 7.5 mg/kg (A-375 [35]): 20.6% | inhibition in vivo at 20 mg/kg (HCT-116 [36]): 40 to 48.3% | Activity [37]: 0.9 g | Activity (Mus musculus [38]): Active | Activity [39]: Toxic | Activity (HCT-116 [40]): Active | Activity (Mus musculus [41]): inactive | inhibition in vivo at 20 mg/kg (HeLa [42]): 54.7% | inhibition in vivo at 20 mg/kg (HCT-116 [43]): 57.1% | Activity (HCT-116 [44]): Active
